Source: patent US20260274894A1, “CYCLIC POLYPEPTIDE COMPOUND AND USE THEREOF” (BIVISION PHARMACEUTICALS, INC., priority 2023, published 2026)
Numbered stars: 1 amine (or outer) side, 2 acyl side, 3 side chain; on linkers, the order of the positions; unused ones are H or OH. Bridge positions count the residues as written; N and C are the ends. Square brackets hold non-standard residues; d marks the D form. Side chains are listed from the residue outwards. Peptide text beside a SMILES is read from it. * marks the point of attachment. ξ: configuration not given here. TBMB(SCH2CH2NH-DOTA) = O=C(O)CN1CCN(CC(=O)O)CCN(CC(=O)NCCSCc2cc(C[*:1])cc(C[*:2])c2)CCN(CC(=O)O)CC1; NH(CH2)2O(CH2)2NHDOTA = O=C(O)CN1CCN(CC(=O)O)CCN(CC(=O)NCCOCCN*)CCN(CC(=O)O)CC1; X4 = O=C(O)CN1CCN(CC(=O)O)CCN(CC(=O)N2CCc3cc(C(=O)*)ccc3C2)CCN(CC(=O)O)CC1; X5 = CCCCCC(=O)N[C@@H](CSCc1cccc(C[*:2])c1)C(=O)N1CCC[C@@H](NC(=O)[*:1])C1; X3 = O=C(O)CN1CCN(CC(=O)O)CCN(CC(=O)NCCOCCOCCOCCN*)CCN(CC(=O)O)CC1; DOTA = O=C(O)CN1CCN(CC(=O)O)CCN(CC(=O)*)CCN(CC(=O)O)CC1; Azetidine3carboxylic = O=C(C1CN([*:1])C1)[*:2]; γGlu = O=C(O)[C@H](CCC(=O)[*:2])N[*:1]; βAsp = O=C(O)[C@H](CC(=O)[*:2])N[*:1]; mXylylene = c1cc(C[*:1])cc(C[*:2])c1; ξγGlu = O=C(O)C(CCC(=O)[*:2])N[*:1]; Ethylenediamine = C(CN[*:2])N[*:1]; Cha = N[C@@H](CC1CCCCC1)C(=O)O; Decanoyl = CCCCCCCCCC(=O)*; Octanoyl = CCCCCCCC(=O)*; Hexanoyl = CCCCCC(=O)*; ξP = O=C(O)C1CCCN1; ξC = NC(CS)C(=O)O

Molecular target: T1, FAP protein (Homo sapiens, UniProt Q12884)
T1 construct: purchased Sinobiological
T1 sequence (Q12884 1-760): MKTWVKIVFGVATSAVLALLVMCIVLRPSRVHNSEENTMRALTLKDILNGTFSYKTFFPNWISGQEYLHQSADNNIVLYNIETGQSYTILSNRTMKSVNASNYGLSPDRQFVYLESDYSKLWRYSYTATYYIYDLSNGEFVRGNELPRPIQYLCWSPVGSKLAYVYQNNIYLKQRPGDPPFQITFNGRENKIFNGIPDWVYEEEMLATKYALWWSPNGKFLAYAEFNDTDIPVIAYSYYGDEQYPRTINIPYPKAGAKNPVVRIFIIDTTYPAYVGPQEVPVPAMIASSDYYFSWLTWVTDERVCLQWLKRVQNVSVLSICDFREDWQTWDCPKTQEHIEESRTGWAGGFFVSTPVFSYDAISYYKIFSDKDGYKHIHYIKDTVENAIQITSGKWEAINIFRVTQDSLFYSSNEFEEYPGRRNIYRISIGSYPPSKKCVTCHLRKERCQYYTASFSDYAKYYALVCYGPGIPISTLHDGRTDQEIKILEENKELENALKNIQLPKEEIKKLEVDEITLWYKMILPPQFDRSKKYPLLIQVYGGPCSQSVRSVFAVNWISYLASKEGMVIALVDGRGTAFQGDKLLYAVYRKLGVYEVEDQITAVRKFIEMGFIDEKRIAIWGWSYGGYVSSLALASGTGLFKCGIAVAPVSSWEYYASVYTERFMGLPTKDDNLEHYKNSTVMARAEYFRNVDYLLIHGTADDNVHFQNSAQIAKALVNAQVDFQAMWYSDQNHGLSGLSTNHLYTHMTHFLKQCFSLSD
Assay: Biacore test of compound affinity to FAP protein
Settings: Biacore 8K, SA chip, 15° C., 1:1 binding model; for Kd: read-out: pKD (FAP) (converted)
Protocol: The Biacore 8K (Cytiva) instrument was used to detect ligand binding of the FAP protein (Sinobiological). FAP protein was captured on the SA chip. […] The sensor surface was conditioned by injecting 1M NaCl three consecutive times in 50 mM NaOH. After each ligand injection, additional cleaning was performed using isopropanol in 1M NaCl and 50 mM NaOH (flow path 1 and 2, flow rate of 10 μL/min, injection time of 60 s). […] The analyte was run under the following conditions: analysis temperature of 15° C., analysis step=all set to LMW kinetics; cycle type=single cycle (contact time of 90 s, dissociation time of 1800 s, flow rate of 30 μL/min, flow channels 1 and 2); channel detection=2-1. Data was evaluated using the Biacore Insight Evaluation Software, and the data were fitted to a 1:1 binding model. The Biacore results are shown in Table 2 below: pKD=−Log KD, where KD is the binding affinity of the compound to the FAP protein as measured by Biacore.

| pKD (FAP) | Kd | Compound |
| --- | --- | --- |
| B (B: 7<pKD<8) |  | CCCCCC(=O)N[C@H]1CSCc2cccc(c2)CSC[C@@H](C(=O)N[C@@H](CCC(=O)NCCNC(=O)CN2CCN(CC(=O)O)CCN(CC(=O)O)CCN(CC(=O)O)CC2)C(=O)O)NC(=O)[C@H](Cc2ccccc2)NC(=O)[C@H](CCC(N)=O)NC(=O)[C@H]([C@@H](C)O)NC(=O)[C@@H]2CCCN2C(=O)C2CN(C2)C1=O (single isomer, unassigned) [^175Lu-JHDC23] |
|  | < 0.01 µM | CCCCCC(=O)N[C@H]1CSCc2cccc(c2)CSCC(C(=O)N[C@@H](CCC(=O)NCCOCCNC(=O)CN2CCN(CC(=O)O)CCN(CC(=O)O)CCN(CC(=O)O)CC2)C(=O)O)NC(=O)[C@H](CC2CCCCC2)NC(=O)[C@H](CCC(N)=O)NC(=O)[C@H]([C@@H](C)O)NC(=O)C2CCCN2C(=O)C2CN(C2)C1=O (stereo partly drawn) [JHDC05, Hex[Cys(3MeBn)-hhy39-Pro-Thr-Gln-hhy34-Cys]-Glu-(DAPEG2-DOTA)-OH] (Hexanoyl-C[Azetidine3carboxylic][ξP]TQ[Cha][ξC]E(NH(CH2)2O(CH2)2NHDOTA)-OH; linker 1-7 via mXylylene) |
|  | < 0.01 µM | CCCCCC(=O)N[C@H]1CSCc2cccc(c2)CSCC(C(=O)N[C@@H](CCC(=O)NCCOCCNC(=O)CN2CCN(CC(=O)O)CCN(CC(=O)O)CCN(CC(=O)O)CC2)C(=O)O)NC(=O)[C@H](Cc2ccccc2)NC(=O)[C@H](CCC(N)=O)NC(=O)[C@H]([C@@H](C)O)NC(=O)C2CCCN2C(=O)C2CN(C2)C1=O (stereo partly drawn) [JHDC06, Hex[Cys(3MeBn)-hhy39-Pro-Thr-Gln-Phe-Cys]-Glu-(DAPEG2-DOTA)-OH] (Hexanoyl-C[Azetidine3carboxylic][ξP]TQF[ξC]E(NH(CH2)2O(CH2)2NHDOTA)-OH; linker 1-7 via mXylylene) |
|  | 0.01 to 0.1 µM | CCCCCC(=O)N[C@H]1CSCc2cccc(c2)CSCC(C(=O)N[C@@H](CCCCNC(=O)CN2CCN(CC(=O)O)CCN(CC(=O)O)CCN(CC(=O)O)CC2)C(=O)O)NC(=O)[C@H](Cc2ccccc2)NC(=O)[C@H](CCC(N)=O)NC(=O)[C@H]([C@@H](C)O)NC(=O)C2CCCN2C(=O)N[C@@H]2CCCN(C2)C1=O (stereo partly drawn) [JHDC07, Hex[Cys(3MeBn)-hhy44(NH)—CO-Pro-Thr-Gln-Phe-Cys]-Lys-(DOTA)-OH] ([ξP]TQF[ξC]K(DOTA)-OH; linker N-5 via X5) |
|  | 0.01 to 0.1 µM | CCCCCC(=O)N[C@H]1CSCc2cccc(c2)CSCC(C(=O)N[C@@H](CCC(=O)NCCOCCNC(=O)CN2CCN(CC(=O)O)CCN(CC(=O)O)CCN(CC(=O)O)CC2)C(=O)O)NC(=O)[C@H](CC2CCCCC2)NC(=O)CNC(=O)[C@H](CCC(N)=O)NC(=O)[C@H]([C@@H](C)O)NC(=O)C2CCCN2C(=O)C2CN(C2)C1=O (stereo partly drawn) [JHDC09, Hex[Cys(3MeBn)-hhy39-Pro-Thr-Gln-Gly-hhy34-Cys]-Glu-(DAPEG2-DOTA)-OH] (Hexanoyl-C[Azetidine3carboxylic][ξP]TQG[Cha][ξC]E(NH(CH2)2O(CH2)2NHDOTA)-OH; linker 1-8 via mXylylene) |
|  | 0.01 to 0.1 µM | CCCCCC(=O)N[C@H]1CSCc2cccc(c2)CSC[C@@H](C(=O)NCCOCCNC(=O)CN2CCN(CC(=O)O)CCN(CC(=O)O)CCN(CC(=O)O)CC2)NC(=O)[C@H](Cc2ccccc2)NC(=O)[C@H](CCC(N)=O)NC(=O)[C@H]([C@@H](C)O)NC(=O)[C@@H]2CCCN2C(=O)C2CN(C2)C1=O [JHDC10, Hex[Cys(3MeBn)-hhy39-Pro-Thr-Gln-Phe-Cys]-DAPEG2-DOTA] (Hexanoyl-C[Azetidine3carboxylic]PTQFC-{NH(CH2)2O(CH2)2NHDOTA}; linker 1-7 via mXylylene) |
|  | 0.01 to 0.1 µM | CCCCCC(=O)N[C@H]1CCCCn2cc(nn2)CSC[C@@H](C(=O)N[C@@H](CCCCNC(=O)COCCNC(=O)CN2CCN(CC(=O)O)CCN(CC(=O)O)CCN(CC(=O)O)CC2)C(=O)O)NC(=O)[C@H](Cc2ccccc2)NC(=O)[C@H](CCC(N)=O)NC(=O)[C@H]([C@@H](C)O)NC(=O)[C@@H]2CCCN2C(=O)C2CN(C2)C1=O [JHDC12, Hex[2AHA(Triazole)-hhy39-Pro-Thr-Gln-Phe-CSMC]-Lys-(AEAA-DOTA)-OH] |
|  | 0.01 to 0.1 µM | CCCCCC(=O)N[C@H]1CSCc2cccc(c2)CSCC(C(=O)N[C@@H](CCC(=O)NCCOCCOCCOCCNC(=O)CN2CCN(CC(=O)O)CCN(CC(=O)O)CCN(CC(=O)O)CC2)C(=O)O)NC(=O)[C@H](CC2CCCCC2)NC(=O)[C@H](CCC(N)=O)NC(=O)[C@H]([C@@H](C)O)NC(=O)C2CCCN2C(=O)C2CN(C2)C1=O (stereo partly drawn) [JHDC16, Hex[Cys(3MeBn)-hhy39-Pro-Thr-Gln-hhy34-Cys]-Glu-(DAPEG4-DOTA)-OH] (Hexanoyl-C[Azetidine3carboxylic][ξP]TQ[Cha][ξC]E(X3)-OH; linker 1-7 via mXylylene) |
|  | 0.01 to 0.1 µM | CCCCCC(=O)N[C@H]1CSCc2cccc(c2)CSCC(C(=O)N[C@@H](CCC(=O)NCCOCCNC(=O)CN2CCN(CC(=O)O)CCN(CC(=O)O)CCN(CC(=O)O)CC2)C(=O)O)NC(=O)CNC(=O)[C@H](CC2CCCCC2)NC(=O)[C@H](CCC(N)=O)NC(=O)[C@H]([C@@H](C)O)NC(=O)C2CCCN2C(=O)C2CN(C2)C1=O (stereo partly drawn) [JHDC17, Hex[Cys(3MeBn)-hhy39-Pro-Thr-Gln-hhy34-Gly-Cys]-Glu-(DAPEG2-DOTA)-OH] (Hexanoyl-C[Azetidine3carboxylic][ξP]TQ[Cha]G[ξC]E(NH(CH2)2O(CH2)2NHDOTA)-OH; linker 1-8 via mXylylene) |
|  | 0.01 to 0.1 µM | CCCCCCCCCC(=O)N[C@H]1CSCc2cccc(c2)CSC[C@@H](C(=O)N[C@@H](CCC(=O)N[C@@H](CCCNC(=N)N)C(=O)NCC(=O)N[C@@H](CC(=O)NCCNC(=O)CN2CCN(CC(=O)O)CCN(CC(=O)O)CCN(CC(=O)O)CC2)C(=O)O)C(=O)O)NC(=O)[C@H](Cc2ccccc2)NC(=O)[C@H](CCC(N)=O)NC(=O)[C@H]([C@@H](C)O)NC(=O)[C@@H]2CCCN2C(=O)C2CN(C2)C1=O [JHDC18, Dec[Cys(3MeBn)-hhy39-Pro-Thr-Gln-Phe-Cys]-Glu-(Arg-Gly-Asp(EDA-DOTA))-OH] (Decanoyl-C[Azetidine3carboxylic]PTQFC[γGlu]RG[βAsp]-{Ethylenediamine-DOTA}; linker 1-7 via mXylylene) |
|  | 0.01 to 0.1 µM | CCCCCCCCCC(=O)N[C@H]1CSCc2cccc(c2)CSC[C@@H](C(=O)N[C@@H](CCC(=O)N[C@@H](CCCNC(=N)N)C(=O)NCC(=O)N[C@@H](CC(=O)NCCNC(=O)CN2CCN(CC(=O)O)CCN(CC(=O)O)CCN(CC(=O)O)CC2)C(=O)O)C(=O)O)NC(=O)[C@H](CC2CCCCC2)NC(=O)[C@H](CCC(N)=O)NC(=O)[C@H]([C@@H](C)O)NC(=O)[C@@H]2CCCN2C(=O)C2CN(C2)C1=O [JHDC19, Dec[Cys(3MeBn)-hhy39-Pro-Thr-Gln-hhy34-Cys]-Glu-(Arg-Gly-Asp(EDA-DOTA))-OH] (Decanoyl-C[Azetidine3carboxylic]PTQ[Cha]C[γGlu]RG[βAsp]-{Ethylenediamine-DOTA}; linker 1-7 via mXylylene) |
|  | 0.01 to 0.1 µM | CCCCCCCC(=O)N[C@H]1CSCc2cc(CSCCNC(=O)CN3CCN(CC(=O)O)CCN(CC(=O)O)CCN(CC(=O)O)CC3)cc(c2)CSC[C@@H](C(=O)NC(CCC(=O)N[C@@H](CCCNC(=N)N)C(=O)NCC(=O)N[C@@H](CC(N)=O)C(=O)O)C(=O)O)NC(=O)[C@H](CC2CCCCC2)NC(=O)[C@H](CCC(N)=O)NC(=O)[C@H]([C@@H](C)O)NC(=O)C2CCCN2C(=O)C2CN(C2)C1=O (stereo partly drawn) [JHDC21, Oct[Cys(tMeBn-DOTA-AET)-hhy39-Pro-Thr-Gln-hhy34-Cys]-Glu-(Arg-Gly-Asp(NH2))-OH] (Octanoyl-C[Azetidine3carboxylic][ξP]TQ[Cha]C[ξγGlu]RGN-OH; linker 1-7 via TBMB(SCH2CH2NH-DOTA)) |
|  | 0.01 to 0.1 µM | CCCCCC(=O)N[C@H]1CSCc2cccc(c2)CSCC(C(=O)N[C@@H](CCC(=O)NCCNC(=O)c2ccc3c(c2)CCN(C(=O)CN2CCN(CC(=O)O)CCN(CC(=O)O)CCN(CC(=O)O)CC2)C3)C(=O)O)NC(=O)[C@H](Cc2ccccc2)NC(=O)[C@H](CCC(N)=O)NC(=O)[C@H]([C@@H](C)O)NC(=O)C2CCCN2C(=O)C2CN(C2)C1=O (stereo partly drawn) [JHDC25, Hex[Cys(3MeBn)-hhy39-Pro-Thr-Gln-Phe-Cys]-Glu-(EDA-hhy02-DOTA)-OH] (Hexanoyl-C[Azetidine3carboxylic][ξP]TQF[ξC]E([Ethylenediamine-X4])-OH; linker 1-7 via mXylylene) |
